Measured values published in the CheMixHub viscosity set.
“And” between values parts separate entries of the source, which are not always exact repeats. Identical values can stand only once.

Assay: xn = mol fraction of the nth substance listed

CCCCCCCCCC(=O)OC + CCCCCO
viscosity [mPa·s], 100 kPa
Settings | x1 = 0.1 | x1 = 0.2 | x1 = 0.3 | x1 = 0.4 | x1 = 0.5 | x1 = 0.6 | x1 = 0.7 | x1 = 0.8001 | x1 = 0.9001
298.15 K | 2.764 | 2.385 | 2.169 | 2.028 | 1.946 | 1.892 | 1.866 | 1.859 | 1.875
303.15 K | 2.451 | 2.119 | 1.938 | 1.825 | 1.754 | 1.706 | 1.689 | 1.686 | 1.712
308.15 K | 2.158 | 1.892 | 1.741 | 1.646 | 1.588 | 1.549 | 1.535 | 1.536 | 1.555
313.15 K | 1.918 | 1.697 | 1.571 | 1.49 | 1.444 | 1.413 | 1.402 | 1.407 | 1.426
318.15 K | 1.713 | 1.529 | 1.423 | 1.358 | 1.32 | 1.293 | 1.288 | 1.292 | 1.312
323.15 K | 1.535 | 1.387 | 1.294 | 1.239 | 1.211 | 1.189 | 1.186 | 1.194 | 1.212

ClC(Cl)Cl + COC(=O)OC
viscosity [mPa·s], 101.33 kPa
Settings | x2 = 0.0987 | x2 = 0.2134 | x2 = 0.3031 | x2 = 0.4027 | x2 = 0.5031 | x2 = 0.6187 | x2 = 0.7021 | x2 = 0.7996 | x2 = 0.9013
298.15 K | 0.528 | 0.553 | 0.566 | 0.57 | 0.565 | 0.559 | 0.546 | 0.545 | 0.541
303.15 K | 0.501 | 0.525 | 0.53 | 0.536 | 0.531 | 0.523 | 0.514 | 0.513 | 0.509
308.15 K | 0.475 | 0.494 | 0.504 | 0.507 | 0.502 | 0.493 | 0.484 | 0.48 | 0.48

Cc1ccc(S(=O)(=O)[O-])cc1.O=C1CCC[NH+]1C1CCCCC1 + O
viscosity [mPa·s], 101 kPa
Settings | x1 = 0.002718 | x1 = 0.008026 | x1 = 0.01073
298.15 K | 1.035 | – | 1.485
303.15 K | – | 1.165 | –

ClC(Cl)Cl + CCCCCCCCO
viscosity [mPa·s], 101 kPa
Settings | 303.15 K | 313.15 K
x1 = 0.0471 | 5.924 | 4.259
x1 = 0.0996 | 5.36 | 3.883
x1 = 0.149 | 4.852 | 3.545
x1 = 0.1997 | 4.346 | 3.212
x1 = 0.2493 | 3.898 | 2.902
x1 = 0.3001 | 3.475 | 2.593
x1 = 0.3529 | 3.039 | 2.315
x1 = 0.4037 | 2.666 | 2.07
x1 = 0.4548 | 2.332 | 1.823
x1 = 0.5001 | 2.062 | 1.648
x1 = 0.555 | 1.772 | 1.426
x1 = 0.5995 | 1.552 | 1.273
x1 = 0.6467 | 1.37 | 1.134
x1 = 0.7001 | 1.171 | 0.987
x1 = 0.7484 | 1.036 | 0.883
x1 = 0.7997 | 0.929 | 0.769
x1 = 0.8451 | 0.804 | 0.704
x1 = 0.9007 | 0.693 | 0.627
x1 = 0.9494 | 0.616 | 0.555

CC(=O)OCc1ccccc1 + CCCCCO
viscosity [mPa·s], 101.33 kPa
Settings | x1 = 0.1074 | x1 = 0.2083 | x1 = 0.2988 | x1 = 0.4051 | x1 = 0.5012 | x1 = 0.6057 | x1 = 0.7115 | x1 = 0.8097 | x1 = 0.9004
293.15 K | 3.865 | 3.649 | 3.465 | 3.261 | 3.087 | 2.909 | 2.738 | 2.589 | 2.459
303.15 K | 2.789 | 2.661 | 2.551 | 2.427 | 2.321 | 2.21 | 2.103 | 2.009 | 1.926
313.15 K | 2.194 | 2.1 | 2.018 | 1.927 | 1.848 | 1.766 | 1.686 | 1.616 | 1.553
323.15 K | 1.296 | 1.288 | 1.281 | 1.274 | 1.266 | 1.259 | 1.251 | 1.244 | 1.237

CC(C)C(=O)O + [2H]O[2H]
101 kPa, x1 = 0.111
Settings | viscosity
318.1 K | 2.122 mPa·s and 2.132 mPa·s and 2.14 mPa·s
318.11 K | 2.112 mPa·s
318.12 K | 2.092 mPa·s
318.13 K | 2.074 mPa·s
318.14 K | 2.06 mPa·s
318.15 K | 2.046 mPa·s
318.17 K | 2.018 mPa·s
318.19 K | 2.011 mPa·s
318.2 K | 1.997 mPa·s
318.23 K | 1.973 mPa·s
318.26 K | 1.956 mPa·s
318.29 K | 1.944 mPa·s
318.3 K | 1.934 mPa·s
318.36 K | 1.912 mPa·s
318.39 K | 1.902 mPa·s
318.48 K | 1.876 mPa·s
318.56 K | 1.857 mPa·s
318.66 K | 1.838 mPa·s
318.69 K | 1.833 mPa·s
318.98 K | 1.788 mPa·s
319.21 K | 1.763 mPa·s
319.69 K | 1.717 mPa·s
320.21 K | 1.677 mPa·s
321.2 K | 1.615 mPa·s
322.2 K | 1.562 mPa·s

CCOCCOCC + COCCOCCOCCO
viscosity [mPa·s], 101.33 kPa
Settings | 298.15 K | 308.15 K
x2 = 0.0126 | 0.622 | 0.539
x2 = 0.0328 | 0.652 | 0.561
x2 = 0.052 | 0.688 | 0.586
x2 = 0.0807 | 0.73 | 0.617
x2 = 0.1339 | 0.824 | 0.691
x2 = 0.1806 | 0.917 | 0.765
x2 = 0.2394 | 1.047 | 0.872
x2 = 0.2918 | 1.18 | 0.978
x2 = 0.342 | 1.332 | 1.097
x2 = 0.385 | 1.473 | 1.198
x2 = 0.4103 | 1.588 | 1.262
x2 = 0.4604 | 1.801 | 1.417
x2 = 0.5091 | 2.04 | 1.573
x2 = 0.5505 | 2.273 | 1.725
x2 = 0.5978 | 2.561 | 1.923
x2 = 0.6522 | 2.935 | 2.167
x2 = 0.7117 | 3.396 | 2.476
x2 = 0.7976 | 4.169 | 2.989
x2 = 0.8577 | 4.791 | 3.415
x2 = 0.9256 | 5.588 | 3.957
x2 = 0.9633 | 6.103 | 4.311
